Measurements: patent US20260091078A1, “OLIGOPEPTIDE THAT INHIBITS ANGIOGENESIS AND VASCULAR FUNCTION” (UNIVERSIDAD NACIONAL AUTONOMA DE MEXICO, priority 2019, published 2026)

System: VEGF-induced retinal vasopermeability
Test: Vasopermeability in vivo: VEGF-induced retinal albumin extravasation (Evans blue method)
Conditions: Wistar rats, intravitreal, 20 μM with 300 ng VEGF, 24 hours
Procedure: For evaluating if the oligopeptide THGRGFI conserves the inhibitory properties of vasoinhibin on VEGF-induced vasopermeability in vivo, the effect of the intravitreal injection of VEGF alone or in combination with the oligopeptide or vasoinhibin in rats was determined.
Wistar rats were intravitreally injected with saline (control) or with 300 ng of VEGF in each case alone or in combination with 20 μM of the oligopeptide of the invention or with 20 μM of vasoinhibin. After 24 hours, the extravasation of albumin into the retina was evaluated using the Evans blue method. Briefly, 45 mg kg^−1 of total weight of the Evans blue dye was injected intravenously to anesthetized rats and was allowed to circulate for 2 hours. Then, the animals were perfused with ˜80 ml of PBS at a flow of ˜40 ml min^−1. The retinas were dissected, dried and incubated with 200 μl of formamide (Mallinckrodt Baker, Phillipsburg, NJ) at 72° C. and after 18 hours the labeled albumin was determined in the retinal extracts.

## Ac-THGRGFI-NH2 [THGRGFI, Thr His Gly Arg Gly Phe Ile]
  inhibition of VEGF-induced retinal vasopermeability: blocks the VEGF increase in retinal vasopermeability
